Bridge positions count the residues as written; N and C are the ends. Peptide text beside a SMILES is read from it. * marks the point of attachment. FITC = O=C1OC2(c3ccc(O)cc3Oc3cc(O)ccc32)c2ccc(NC(=S)*)cc21; Ahx = NCCCCCC(=O)O
System: TE-13 cells co-cultured with T cells
Assay: Lactate dehydrogenase (LDH) release assay, T cell cytotoxicity
Type: cell-based, human
Conditions: TE-13 and T cells at 16:1; FITC-YT-16 1, 2, 4, 8 and 16 µM; overnight, 37 °C; A490; triplicate wells
Text: The experiment in Figure 10 mainly evaluated the activation status of CD4^+ T cells by detection of IL-2 and INF-γ levels in the culture supernatant. The test in Figure 11 mainly evaluated the enhanced cytotoxicity by CD8^+ T cells by detection of lactate dehydrogenase (LDH) release in the culture supernatant. Activated CD8 T cells can recognize tumor cells and kill tumor cells by means of degranulation and Fas/FasL recognition. After the tumor cells were damaged, a cytoplasmic enzyme with name lactate dehydrogenase (LDH) is released from damaged cells into the supernatant and by measuring the levels of LDH, we can evaluate the cytotoxic effect of CD8 T cells. […]
Effect of FITC-YT-16 peptide on T cell cytotoxicity was detected by measuring the release of a cytoplasmic enzyme, lactate dehydrogenase (LDH), from damaged cells into the supernatant by using a colorimetric assay according to cytotoxicity detection kit (Cayman Chemical, Ann Arbor, MI, USA). […] The supernatant was transferred to a new 96-well assay plate and the LDH reaction solution was added to each well and incubated for 30 min at 37 °C before the absorbance was read at 490 nm. […] Triplicate wells were averaged and the percentage of specific lysis was calculated by the following equation: % Cytotoxicity=[Experimental value A490−Spontaneous release A490/Maximum release A490−Spontaneous release A490]∗100

CC[C@H](C)[C@@H]1NC(=O)[C@H](CCSC)NC(=O)[C@@H](NC(=O)[C@H](CCCNC(=N)N)NC(=O)[C@H](Cc2ccc(O)cc2)NC(=O)CCCCCNC(=S)Nc2ccc3c(c2)C(=O)OC32c3ccc(O)cc3Oc3cc(O)ccc32)CSSC[C@@H](C(=O)N[C@H](C(=O)N[C@H](C(=O)O)[C@@H](C)O)[C@@H](C)CC)NC(=O)[C@H](CCCCN)NC(=O)[C@H](Cc2ccc(O)cc2)NC(=O)[C@H](CC(=O)O)NC(=O)[C@H](C)NC(=O)CNC(=O)CNC(=O)[C@H](Cc2ccc(O)cc2)NC(=O)[C@H](CO)NC1=O [FITC-YT-16] ({FITC-Ahx}-YRCMISYGGADYKCIT-OH; disulfide 3-14)
T cell cytotoxicity, concentration dependence: dose-dependently increased

Reference: PMC6386944, “Design and Synthesis of A PD-1 Binding Peptide and Evaluation of Its Anti-Tumor Activity” (International Journal of Molecular Sciences, 2019)
